Data from ChEMBL document CHEMBL4266024, “Phytochemical Study of Senecio volckmannii Assisted by CASE-3D with Residual Dipolar Couplings and Isotropic 1H/13C NMR Chemical Shifts” (2018).

Tests used:
Format in all cases: functional
WiDr = test: Growth inhibition of human WiDr cells after 48 hrs by sulforhodamine B assay
SW1573 = test: Growth inhibition of human SW1573 cells after 48 hrs by sulforhodamine B assay; settings: SW1573, 48 h
HeLa = test: Growth inhibition of human HeLa cells after 48 hrs by sulforhodamine B assay
HBL-100 = test: Growth inhibition of human HBL100 cells after 48 hrs by sulforhodamine B assay; settings: HBL-100, 48 h
A549 = test: Growth inhibition of human A549 cells after 48 hrs by sulforhodamine B assay; settings: A549, 48 h
T47D = test: Growth inhibition of human T47D cells after 48 hrs by sulforhodamine B assay

Measured: GI50

CC1=C2C[C@@]3(C)[C@H](C[C@@]2(O)OC1=O)C(=O)CC[C@@H]3C
> 10 µM: all assays above

C[C@H]1CCCC2=CC(=O)[C@H](C(C)(C)O)C[C@@]21C
> 10 µM: all assays above

CC(C)=C1C[C@@]2(C)C(=CC1=O)[C@@H](O)CC[C@@H]2C
> 10 µM: all assays above

CC(C)=C1C[C@@]2(C)C(=CC1=O)CCC[C@@H]2C
> 10 µM: all assays above

C[C@H]1CCCC2=CC(=O)C(C(C)(C)O)=C[C@@]21C
> 10 µM: all assays above

C[C@H]1CC[C@@H](O)C2=CC(=O)C(C(C)(C)O)=C[C@@]21C (relative stereo)
> 10 µM: all assays above

CC(C)=C1C[C@@]2(C)C(=CC1=O)[C@H](O)CC[C@@H]2C
> 10 µM: all assays above

CC(=O)C1=C[C@@]2(C)C(=CC1=O)CCC[C@@H]2C (relative stereo)
> 10 µM: all assays above

CC(C)=C1C[C@@]2(C)[C@H](CCC(=O)[C@@H]2C)CC1=O (relative stereo)
> 10 µM: all assays above
